From patent publication US20250136722A1, “CYTOTOXICITY TARGETING CHIMERAS” (GLAXOSMITHKLINE INTELLECTUAL PROPERTY DEVELOPMENT LIMITED, priority 2021, published 2025)

Target: T1, CHOK1 cells engineered to overexpress human CCR2 (Homo sapiens, UniProt P41597)
T1 construct: expressed in transfected cells; host or cells: CHOK1 cells
Test: Antibody dependent cellular cytotoxicity (ADCC) reporter assay (Example 199)
Format: cell-based
Settings: with anti-cotinine antibody SEQ ID NO: 11/12; CHOK1-human CCR2 target cells, Jurkat FcγRIIIa NFAT-luciferase reporter cells; 12-18 hours; read-out: ADCC Reporter Assay pEC50 (converted)
Method: An antibody dependent cellular cytoxicity reporter assay was conducted using the following four assay components: (i) ARM compound of Formula (I) targeting CCR2 (concentrations ranging from 1 pM to 10 μM) (ii) anti-cotinine antibody having a heavy chain sequence of SEQ ID NO: 11 and a light chain sequence of SEQ ID NO: 12 (rabbit variable region with human IgG1 Fc domain containing a DE mutation (S239D/1332E)) (concentrations ranging from 0.01 μg/mL to 200 μg/mL); (iii) target cells: CHOK1 cells engineered to overexpress either human CCR2 (typically 1000-20,000 cells per well) and (iv) reporter cells: Jurkat cells engineered to express FcγRIIIa with the reporter gene luciferase under the control of the NFAT promoter (typically 3000-75,000 cells per well). Reagents were combined in a final volume of 20 μL in a 384-well tissue culture treated plate. All four assay components were incubated together for about 12-18 hours. Thereafter, BioGlo Detection reagent (Promega) was added to the wells to lyse the cells and provide a substrate for the luciferase reporter protein. Luminescence signal was measured on a microplate reader and signal:background was calculated by dividing the signal of a test well by the signal obtained when no heterobivalent compound of Formula (I) was added. EC50 calculations were done using Graphpad Prism Software, specifically a nonlinear regression curve fit (Y=Bottom+(Top−Bottom)/(1+10^((Log EC50−X)*HillSlope))).
ARMs compounds of Formula (I) of the invention were tested for ADCC activity in the above assay in or more experimental runs and the results are shown in Table 3 below. Potency of the compounds of Formula (I) of the invention is reported as a pEC50 value. The pEC50 value is the negative log of the EC50 value, wherein the EC50 value is the half maximal effective concentration measured in molar (M). For compounds tested in more than one experimental run, the pEC50 value is reported as an average.

| Compound | EC50 [nM] |
| --- | --- |
| CC(C)N(C)[C@@H]1CC[C@H](N2CC[C@H](Nc3ncnc4ccc(C(F)(F)F)cc34)C2=O)[C@H](NC(=O)[C@H]2CC[C@H](N3CCN(C(=O)CCOCCOCCNC(=O)[C@H]4CC(=O)N(C)[C@@H]4c4cccnc4)CC3)CC2)C1 [Example 96, (2S,3S)-N-(2-(2-(3-(4-((1R,4r)-4-(((1R,2S,5R)-5-(Isopropyl(methyl)amino)-2-((S)-2-oxo-3-((6-(trifluoromethyl)quinazolin-4-yl)amino)pyrrolidin-1-yl)cyclohexyl)carbamoyl)cyclohexyl)piperazin-1-yl)-3-oxopropoxy)ethoxy)ethyl)-1-methyl-5-oxo-2-(pyridin-3-yl)pyrrolidine-3-carboxamide] | 6.31 |
| CC(C)N(C)[C@@H]1CC[C@H](N2CC[C@H](Nc3ncnc4ccc(C(F)(F)F)cc34)C2=O)[C@H](NC(=O)[C@H]2CC[C@H](N3CCN(C4CC(CCNC(=O)[C@H]5CC(=O)N(C)[C@@H]5c5cccnc5)C4)CC3)CC2)C1 (stereo partly drawn) [Example 97, (2S,3S)-N-(2-(3-(4-((1R,4S)-4-(((1R,2S,5R)-5-(Isopropyl(methyl)amino)-2-((S)-2-oxo-3-((6-(trifluoromethyl)quinazolin-4-yl)amino)pyrrolidin-1-yl)cyclohexyl)carbamoyl)cyclohexyl)piperazin-1-yl)cyclobutyl)ethyl)-1-methyl-5-oxo-2-(pyridin-3-yl)pyrrolidine-3-carboxamide] | 6.31 |
| CN1C(=O)C[C@H](C(=O)NCCOCC(=O)NCCOCC(=O)N[C@H]2CC[C@@H](C(=O)N[C@@H]3C[C@H](NC(C)(C)C)CC[C@@H]3N3CC[C@H](Nc4ncnc5ccc(C(F)(F)F)cc45)C3=O)CC2)[C@H]1c1cccnc1 [Example 100] | 1.2 |
| CC(C)N(C)[C@@H]1CC[C@H](N2CC[C@H](Nc3ncnc4ccc(C(F)(F)F)cc34)C2=O)[C@H](NC(=O)[C@H]2CC[C@@H](NC(=O)CCOCCNC(=O)CCOCCCNC(=O)[C@H]3CC(=O)N(C)[C@@H]3c3cccnc3)CC2)C1 [Example 101] | 0.278 |
| CN1C(=O)C[C@H](C(=O)NCCOCC(=O)NCCOCCC(=O)NCCOCCC(=O)N[C@@H]2C[C@H](NC(C)(C)C)CC[C@@H]2N2CC[C@H](Nc3ncnc4ccc(C(F)(F)F)cc34)C2=O)[C@H]1c1cccnc1 [Example 106] | 0.558 |
| CC(C)N(C)[C@@H]1CC[C@H](N2CC[C@H](Nc3ncnc4ccc(C(F)(F)F)cc34)C2=O)[C@H](NC(=O)[C@H]2CC[C@H](NC(=O)CCO[C@H]3CC[C@@H](OCCNC(=O)[C@H]4CC(=O)N(C)[C@@H]4c4cccnc4)CC3)CC2)C1 [Example 114] | 5.77 |
| CC(C)N(C)[C@@H]1CC[C@H](N2CC[C@H](Nc3ncnc4ccc(C(F)(F)F)cc34)C2=O)[C@H](NC(=O)[C@H]2C[C@H](NC(=O)CCO[C@H]3CC[C@@H](OCCNC(=O)[C@H]4CC(=O)N(C)[C@@H]4c4cccnc4)CC3)C2)C1 [Example 116] | 5.01 |
| CC(C)N(C)[C@@H]1CC[C@H](N2CC[C@H](Nc3ncnc4ccc(C(F)(F)F)cc34)C2=O)[C@H](NC(=O)[C@H]2C[C@H](NC(=O)CCO[C@H]3CC[C@H](OCCNC(=O)[C@H]4CC(=O)N(C)[C@@H]4c4cccnc4)CC3)C2)C1 [Example 117] | 0.316 |
| CC(C)N(C)[C@@H]1CC[C@H](N2CC[C@H](Nc3ncnc4ccc(C(F)(F)F)cc34)C2=O)[C@H](NC(=O)CCOCCOCCNC(=O)[C@@H]2CCCN2CCOCCNC(=O)[C@H]2CC(=O)N(C)[C@@H]2c2cccnc2)C1 [Example 118, (S)-N-(2-(2-(3-(((1R,2S,5R)-5-(Isopropyl(methyl)amino)-2-((S)-2-oxo-3-((6-(trifluoromethyl)quinazolin-4-yl)amino)pyrrolidin-1-yl)cyclohexyl)amino)-3-oxopropoxy)ethoxy)ethyl)-1-(2-(2-((2S,3S)-1-methyl-5-oxo-2-(pyridin-3-yl)pyrrolidine-3-carboxamido)ethoxy)ethyl)pyrrolidine-2-carboxamide] | 3.98 |
| CN1C(=O)C[C@H](C(=O)NCCOCCOCCC(=O)N[C@H]2CC[C@@H](C(=O)N[C@@H]3C[C@H](NC(C)(C)C)CC[C@@H]3N3CC[C@H](Nc4ncnc5ccc(C(F)(F)F)cc45)C3=O)CC2)[C@H]1c1cccnc1 [Example 120, (2S,3S)-N-(2-(2-(3-(((1S,4s)-4-(((1R,2S,5R)-5-(tert-Butylamino)-2-((S)-2-oxo-3-((6-(trifluoromethyl)quinazolin-4-yl)amino)pyrrolidin-1-yl)cyclohexyl)carbamoyl)cyclohexyl)amino)-3-oxopropoxy)ethoxy)ethyl)-1-methyl-5-oxo-2-(pyridin-3-yl)pyrrolidine-3-carboxamide] | 5.46 |
| CC(C)N(C)[C@@H]1CC[C@H](N2CC[C@H](Nc3ncnc4ccc(C(F)(F)F)cc34)C2=O)[C@H](NC(=O)c2cccc(NCCOCCOCCOCCOCCNC(=O)[C@H]3CC(=O)N(C)[C@@H]3c3cccnc3)n2)C1 [Example 123, N-((1R,2S,5R)-5-(Isopropyl(methyl)amino)-2-((S)-2-oxo-3-((6-(trifluoromethyl)quinazolin-4-yl)amino)pyrrolidin-1-yl)cyclohexyl)-6-((1-((2S,3S)-1-methyl-5-oxo-2-(pyridin-3-yl)pyrrolidin-3-yl)-1-oxo-5,8,11,14-tetraoxa-2-azahexadecan-16-yl)amino)picolinamide] | 5.01 |
| CC(C)N(C)[C@@H]1CC[C@H](N2CC[C@H](Nc3ncnc4ccc(C(F)(F)F)cc34)C2=O)[C@H](NC(=O)c2cccc(NCCOCCOCCOCCOCCOCCNC(=O)[C@H]3CC(=O)N(C)[C@@H]3c3cccnc3)n2)C1 [Example 124] | 2 |
| CC(C)N(C)[C@@H]1CC[C@H](N2CC[C@H](Nc3ncnc4ccc(C(F)(F)F)cc34)C2=O)[C@H](NC(=O)c2ccc(NCCOCCOCCOCCOCCNC(=O)[C@H]3CC(=O)N(C)[C@@H]3c3cccnc3)nn2)C1 [Example 125] | 3.16 |
| CC(C)N(C)[C@@H]1CC[C@H](N2CC[C@H](Nc3ncnc4ccc(C(F)(F)F)cc34)C2=O)[C@H](NC(=O)c2ccnc(NCCOCCOCCOCCOCCNC(=O)[C@H]3CC(=O)N(C)[C@@H]3c3cccnc3)c2)C1 [Example 126] | 1.58 |
| CC(C)N(C)[C@@H]1CC[C@H](N2CC[C@H](Nc3ncnc4ccc(C(F)(F)F)cc34)C2=O)[C@H](NC(=O)c2cc(NCCOCCOCCOCCOCCNC(=O)[C@H]3CC(=O)N(C)[C@@H]3c3cccnc3)ncn2)C1 [Example 127] | 1 |
| CC(C)N(C)[C@@H]1CC[C@H](N2CC[C@H](Nc3ncnc4ccc(C(F)(F)F)cc34)C2=O)[C@H](NC(=O)c2ccc(NCCOCCOCCOCCOCCNC(=O)[C@H]3CC(=O)N(C)[C@@H]3c3cccnc3)nc2)C1 [Example 128, N-((1R,2S,5R)-5-(Isopropyl(methyl)amino)-2-((S)-2-oxo-3-((6-(trifluoromethyl)quinazolin-4-yl)amino)pyrrolidin-1-yl)cyclohexyl)-6-((1-((2S,3S)-1-methyl-5-oxo-2-(pyridin-3-yl)pyrrolidin-3-yl)-1-oxo-5,8, 11, 14-tetraoxa-2-azahexadecan-16-yl)amino)nicotinamide] | 1 |
| CC(C)N(C)[C@@H]1CC[C@H](N2CC[C@H](Nc3ncnc4ccc(C(F)(F)F)cc34)C2=O)[C@H](NC(=O)c2cnn(C3CCN(CCOCCOCCOCCNC(=O)[C@H]4CC(=O)N(C)[C@@H]4c4cccnc4)CC3)c2)C1 [Example 129, N-((1R,2S,5R)-5-(Isopropyl(methyl)amino)-2-((S)-2-oxo-3-((6-(trifluoromethyl)quinazolin-4-yl)amino)pyrrolidin-1-yl)cyclohexyl)-1-(1-(1-((2S,3S)-1-methyl-5-oxo-2-(pyridin-3-yl)pyrrolidin-3-yl)-1-oxo-5,8,11-trioxa-2-azatridecan-13-yl)piperidin-4-yl)-1H-pyrazole-4-carboxamide] | 5.01 |
| CC(C)N(C)[C@@H]1CC[C@H](N2CC[C@H](Nc3ncnc4ccc(C(F)(F)F)cc34)C2=O)[C@H](NC(=O)C2CCC(N3CC(C(=O)NCCOCCOCCNC(=O)[C@H]4CC(=O)N(C)[C@@H]4c4cccnc4)C3)CC2)C1 (stereo partly drawn) [Example 131] | 3.16 |
| CC(C)N(C)[C@@H]1CC[C@H](N2CC[C@H](Nc3ncnc4ccc(C(F)(F)F)cc34)C2=O)[C@H](NC(=O)[C@H]2CC[C@@H](N3CCC(C(=O)NCCOCCOCCNC(=O)[C@H]4CC(=O)N(C)[C@@H]4c4cccnc4)C(F)(F)C3)CC2)C1 (stereo partly drawn) [Example 132] | 3.16 |
| CC(C)N(C)[C@@H]1CC[C@H](N2CC[C@H](Nc3ncnc4ccc(C(F)(F)F)cc34)C2=O)[C@H](NC(=O)c2ccc([C@H]3CC[C@@H](C(=O)NCCOCCOCCNC(=O)[C@H]4CC(=O)N(C)[C@@H]4c4cccnc4)CC3)cc2)C1 [Example 133] | 5.01 |
| CC(C)N(C)[C@@H]1CC[C@H](N2CC[C@H](Nc3ncnc4ccc(C(F)(F)F)cc34)C2=O)[C@H](NC(=O)[C@H]2CC[C@@H](N3CCC(C(=O)NCCOCCOCCNC(=O)[C@H]4CC(=O)N(C)[C@@H]4c4cccnc4)CC3)CC2)C1 [Example 134] | 0.0631 |
